Laboratory results reported in ChEMBL document CHEMBL1148002, “Synthesis and evaluation of 2'-substituted cyclobutyl nucleosides and nucleotides as potential anti-HIV agents” (Bioorg Med Chem Lett, 2007).

What was measured:
[1] = molecular target: Human immunodeficiency virus type 1 reverse transcriptase (Human immunodeficiency virus 1, UniProt Q72547, M184I); assay: Inhibition of HIV reverse transcriptase M184I mutant in cell free assay
[2] = Inhibition of wild type HIV reverse transcriptase in cell free assay; details: Human immunodeficiency virus
[3] = Inhibition of recombinant wild type HIV reverse transcriptase; set-up: species or system Human immunodeficiency virus
[4] = Inhibition of HIV reverse transcriptase M184V mutant in cell free assay; details: Human immunodeficiency virus

Molecule `Nc1nc(=O)n([C@H]2C[C@@H](COP(=O)(O)OP(=O)(O)OP(=O)(O)O)C2)cc1F` has an IC50 [1] of 6.1 µM, an IC50 [2] of 6.9 µM and an IC50 [3] of 4.7 µM.

`Nc1ccn([C@@H]2CS[C@H](COP(=O)(O)OP(=O)(O)OP(=O)(O)O)O2)c(=O)n1` [LAMIVUDINE TRIPHOSPHATE] gave an IC50 [1] greater than 10 µM, an IC50 [2] of 6.5 µM and an IC50 [3] of 3 µM. For the same molecule, the IC50 [4] was greater than 10 µM.
